According to PubChem BioAssay AID330 (DTP/NCI, 2004):
Several values for one entry are separate records, joined by “and”; a condition that tells them apart may be missing. Identical values can stand only once. Inconclusive results and toxic doses are left out. How the source made its calls: active means survival T/C of 150% or more; inactive means T/C below 125% in these data.

System: P388 leukemia ip, CD2F1 mice, survival T/C
Experiment: NCI In Vivo Anticancer Drug Screen. Data for tumor model P388 Leukemia (intraperitoneal) in CD2F1 (CDF1) mice
Conditions: endpoint: median survival time, higher = longer survival
How it was run: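 Mice carrying the transplanted tumor received test compound or vehicle. Survival was recorded in each group, and the value is the treated-group measurement divided by that of the vehicle-treated control group.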

[1] = dose: 12.5 mg/kg/injection, schedule: Q01DX005 (ip), vehicle: saline with Tween-80
[2] = dose: 25.0 mg/kg/injection, schedule: Q01DX005 (ip), vehicle: saline with Tween-80
[3] = dose: 50.0 mg/kg/injection, schedule: Q01DX005 (ip), vehicle: saline with Tween-80
[4] = dose: 60.0 mg/kg/injection, schedule: Q01DX005 (ip), vehicle: saline with Tween-80
[5] = dose: 120.0 mg/kg/injection, schedule: Q01DX005 (ip), vehicle: saline with Tween-80
[6] = dose: 240.0 mg/kg/injection, schedule: Q01DX005 (ip), vehicle: saline with Tween-80
[7] = dose: 30.0 mg/kg/injection, schedule: Q01DX005 (ip), vehicle: saline with Tween-80
[8] = dose: 3.12 mg/kg/injection, schedule: Q01DX005 (ip), vehicle: saline with Tween-80
[9] = dose: 50.0 mg/kg/injection, schedule: Q01DX005 (ip), vehicle: Klucel (hydroxypropylcellulose) (HPC)
[10] = dose: 100.0 mg/kg/injection, schedule: Q01DX005 (ip), vehicle: Klucel (hydroxypropylcellulose) (HPC)
[11] = dose: 100.0 mg/kg/injection, schedule: Q01DX009 (ip), vehicle: saline with Tween-80
[12] = dose: 200.0 mg/kg/injection, schedule: Q01DX009 (ip), vehicle: saline with Tween-80
[13] = dose: 7.5 mg/kg/injection, schedule: Q01DX005 (ip), vehicle: saline with Tween-80
[14] = dose: 15.0 mg/kg/injection, schedule: Q01DX005 (ip), vehicle: saline with Tween-80
[15] = dose: 200.0 mg/kg/injection, schedule: Q01DX005 (ip), vehicle: saline with Tween-80
[16] = dose: 60.0 mg/kg/injection, schedule: Q01DX005 (ip), vehicle: saline
[17] = dose: 120.0 mg/kg/injection, schedule: Q01DX005 (ip), vehicle: saline
[18] = dose: 240.0 mg/kg/injection, schedule: Q01DX005 (ip), vehicle: saline

Measured: T/C

COc1ccc2c(c1O)C13CC=NC(C2)C1C(C)(C)C(C)(C)C(=O)C3 (stereo not given)
inactive: [1] 100 % of control | [2] 101 % of control | [3] 100 % of control and 97 % of control

COc1ccc(C2c3cc4c(cc3OC(C)(N3CCCC3)C2C)OCO4)c(OC)c1OC (stereo not given)
inactive: [4] 100 % of control | [5] 95 % of control | [6] 96 % of control

O=C(Nc1ccc(Cl)cc1)Nc1nnc2nc(C3(c4nc5nnc(NC(=O)Nc6ccc(Cl)cc6)n5[nH]c4=O)CCCC3=O)c(=O)[nH]n12
inactive: [7] 95 % of control | [4] 91 % of control and 95 % of control | [6] 86 % of control

Cc1ccc2nc(C[n+]3cccc4ccccc43)ccc2c1
inactive: dose: 0.38 mg/kg/injection, schedule: Q01DX005 (ip), vehicle: saline 107 % of control | dose: 0.75 mg/kg/injection, schedule: Q01DX005 (ip), vehicle: saline with Tween-80 113 % of control | dose: 0.75 mg/kg/injection, schedule: Q01DX005 (ip), vehicle: saline 115 % of control and 122 % of control | dose: 1.5 mg/kg/injection, schedule: Q01DX005 (ip), vehicle: saline with Tween-80 115 % of control | dose: 1.5 mg/kg/injection, schedule: Q01DX005 (ip), vehicle: saline 116 % of control | dose: 3.0 mg/kg/injection, schedule: Q01DX005 (ip), vehicle: saline with Tween-80 100 % of control | dose: 3.0 mg/kg/injection, schedule: Q01DX005 (ip), vehicle: saline 114 % of control and 116 % of control | [8] 117 % of control

COC1(C2COc3cc(OCc4ccccc4)ccc3C2=O)C=C2OCOC2=CC1=O (stereo not given)
inactive: dose: 12.5 mg/kg/injection, schedule: Q01DX005 (ip), vehicle: Klucel (hydroxypropylcellulose) (HPC) 99 % of control | dose: 25.0 mg/kg/injection, schedule: Q01DX005 (ip), vehicle: Klucel (hydroxypropylcellulose) (HPC) 96 % of control | [9] 89 % of control

O=C1/C(=C/c2ccccc2)CSC/C1=C\c1ccccc1
inactive: [9] 91 % of control | [10] 86 % of control

CC1SC(C)(C)N(C=O)C1C(=O)O (stereo not given)
inactive: dose: 50.0 mg/kg/injection, schedule: Q01DX009 (ip), vehicle: saline with Tween-80 99 % of control and 100 % of control | [11] 101 % of control and 91 % of control | [12] 106 % of control and 94 % of control

CC(C)NC(=O)OCc1c(COC(=O)NC(C)C)c(S(=O)c2ccccc2)n2c1CCC2 (stereo not given)
inactive: dose: 25.0 mg/kg/injection, schedule: Q01DX005 (ip), vehicle: distilled water + Tween-80 113 % of control | dose: 50.0 mg/kg/injection, schedule: Q01DX005 (ip), vehicle: distilled water + Tween-80 110 % of control | dose: 100.0 mg/kg/injection, schedule: Q01DX005 (ip), vehicle: distilled water + Tween-80 113 % of control

CCC1(C#N)N=C(c2ccccc2)c2ccccc2N1C(=O)OC (stereo not given)
inactive: [4] 96 % of control | [5] 98 % of control | [6] 98 % of control

C[N+](C)=c1ccc2nc3c(ccc4ccccc43)oc-2c1
inactive: [8] 105 % of control | dose: 6.25 mg/kg/injection, schedule: Q01DX005 (ip), vehicle: saline with Tween-80 105 % of control | [1] 103 % of control

COc1ccc2nc3cc(Cl)ccc3c(NCCCC3CCCN4CCCCC34)c2c1 (stereo not given)
inactive: [13] 108 % of control | [14] 108 % of control | [7] 111 % of control

O=S(=O)(CCCCl)SCCCCl
inactive: [13] 104 % of control | [14] 105 % of control | [7] 103 % of control and 105 % of control | [4] 96 % of control

CN(C)C1C(O)C2Oc3c(cc(O)c4c3C(=O)c3cc5c(c(O)c3C4=O)C(NC3CCCCC3)CC(C)(O)C5)C(C)(O2)C1O (stereo not given)
inactive: dose: 2.5 mg/kg/injection, schedule: Q01DX009 (ip), vehicle: other 102 % of control | dose: 5.0 mg/kg/injection, schedule: Q01DX009 (ip), vehicle: other 105 % of control | dose: 10.0 mg/kg/injection, schedule: Q01DX009 (ip), vehicle: other 112 % of control | dose: 40.0 mg/kg/injection, schedule: Q01DX009 (ip), vehicle: other 121 % of control

CCCn1c2ccccc2c2ccccc21
inactive: dose: 100.0 mg/kg/injection, schedule: Q04DX003 (ip), vehicle: Klucel (hydroxypropylcellulose) (HPC) 104 % of control | dose: 200.0 mg/kg/injection, schedule: Q04DX003 (ip), vehicle: Klucel (hydroxypropylcellulose) (HPC) 104 % of control | dose: 400.0 mg/kg/injection, schedule: Q04DX003 (ip), vehicle: Klucel (hydroxypropylcellulose) (HPC) 100 % of control

CC(=O)Nc1sccc1S(=O)(=O)c1ccsc1NC(C)=O
inactive: dose: 100.0 mg/kg/injection, schedule: Q04DX002 (ip), vehicle: saline with Tween-80 100 % of control | dose: 200.0 mg/kg/injection, schedule: Q04DX002 (ip), vehicle: saline with Tween-80 105 % of control | dose: 400.0 mg/kg/injection, schedule: Q04DX002 (ip), vehicle: saline with Tween-80 98 % of control

CC(=NCCN=C(C)c1cc(C)cc(Br)c1O)c1cc(C)cc(Br)c1O
inactive: [9] 108 % of control | [10] 101 % of control | dose: 200.0 mg/kg/injection, schedule: Q01DX005 (ip), vehicle: Klucel (hydroxypropylcellulose) (HPC) 117 % of control

O=[N+]([O-])c1ccc(/C=N/Nc2nnc(-c3ccccc3)c(-c3ccccc3)n2)o1
inactive: [1] 106 % of control | [2] 103 % of control | [3] 93 % of control and 96 % of control | [15] 88 % of control

C[C@]12CCC(=O)C[C@H]1CC[C@@H]1[C@@H]2CC[C@@]2(C)[C@H]1CC[C@]2(C)O
inactive: [11] 90 % of control | [12] 95 % of control | dose: 400.0 mg/kg/injection, schedule: Q01DX009 (ip), vehicle: saline with Tween-80 100 % of control

COc1nc(=O)n(C2OC(=O)C(C)(C)C2=O)cc1F (stereo not given)
inactive: dose: 11.25 mg/kg/injection, schedule: Q04DX002 (ip), vehicle: distilled water + Tween-80 100 % of control | dose: 22.5 mg/kg/injection, schedule: Q04DX002 (ip), vehicle: distilled water + Tween-80 106 % of control | dose: 45.0 mg/kg/injection, schedule: Q04DX002 (ip), vehicle: distilled water + Tween-80 100 % of control | dose: 90.0 mg/kg/injection, schedule: Q04DX002 (ip), vehicle: distilled water + Tween-80 106 % of control | dose: 180.0 mg/kg/injection, schedule: Q04DX002 (ip), vehicle: distilled water + Tween-80 96 % of control | dose: 360.0 mg/kg/injection, schedule: Q04DX002 (ip), vehicle: distilled water + Tween-80 100 % of control

C=C1CCN(c2ccc(C)cc2)C1=O
inactive: dose: 4.0 mg/kg/injection, schedule: Q01DX009 (ip), vehicle: saline + alcohol 100 % of control | dose: 8.0 mg/kg/injection, schedule: Q01DX009 (ip), vehicle: saline + alcohol 100 % of control | dose: 16.0 mg/kg/injection, schedule: Q01DX009 (ip), vehicle: saline + alcohol 96 % of control | dose: 64.0 mg/kg/injection, schedule: Q01DX009 (ip), vehicle: saline + alcohol 94 % of control

O=C1c2c(c(Cl)c3ccccc3c2O)C(=O)C2C3C=CC(C3)C12 (stereo not given)
inactive: [3] 96 % of control | dose: 100.0 mg/kg/injection, schedule: Q01DX005 (ip), vehicle: saline with Tween-80 89 % of control | [15] 89 % of control

CCC(=O)Cc1nc2n(c1O)C(=N)N=N2
inactive: [16] 98 % of control | [17] 98 % of control | [18] 98 % of control

Cc1csc(=S)n1O
inactive: [16] 101 % of control | [17] 100 % of control | [18] 101 % of control
